Molecules are shown by their SMILES.

From paper PMC8766756, “Insights on Cancer Cell Inhibition, Subcellular Activities, and Kinase Profile of Phenylacetamides Pending 1H-Imidazol-5-One Variants” (Frontiers in Pharmacology, 2022) come the findings set out here.

Experiment in all cases: PamChip tyrosine kinase microarray
Holding throughout (type): biochemical
Common to all, as to conditions: 0.1 µM, HL60 lysate

One assay has as its target T1, PDGFR[beta] (P09619) (Homo sapiens, UniProt P09619).
T1 construct: purchased PamGene (PamChip PTK array, Upstream Kinase Analysis)
In a few lines:
(§1)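 HL60 (AML) cell lysate was spiked with compound at 0.001, 0.01, 0.1, 1, 10 and 50 µM, or 2% v/v DMSO as control, then profiled in technical replicates on a tyrosine kinase peptide array of 196 phosphosites. Kinase activity was inferred from peptide-set changes using an upstream kinase tool.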

The target of another assay is T2, FGFR1 (P11362) (Homo sapiens, UniProt P11362).
T2 construct: purchased PamGene (PamChip PTK array, Upstream Kinase Analysis)
In a few lines:
as §1

The next assay concerns the target T3, ZAP70 (P43403) (Homo sapiens, UniProt P43403).
T3 construct: purchased PamGene (PamChip PTK array, Upstream Kinase Analysis)
T3 sequence (P43403 1-619): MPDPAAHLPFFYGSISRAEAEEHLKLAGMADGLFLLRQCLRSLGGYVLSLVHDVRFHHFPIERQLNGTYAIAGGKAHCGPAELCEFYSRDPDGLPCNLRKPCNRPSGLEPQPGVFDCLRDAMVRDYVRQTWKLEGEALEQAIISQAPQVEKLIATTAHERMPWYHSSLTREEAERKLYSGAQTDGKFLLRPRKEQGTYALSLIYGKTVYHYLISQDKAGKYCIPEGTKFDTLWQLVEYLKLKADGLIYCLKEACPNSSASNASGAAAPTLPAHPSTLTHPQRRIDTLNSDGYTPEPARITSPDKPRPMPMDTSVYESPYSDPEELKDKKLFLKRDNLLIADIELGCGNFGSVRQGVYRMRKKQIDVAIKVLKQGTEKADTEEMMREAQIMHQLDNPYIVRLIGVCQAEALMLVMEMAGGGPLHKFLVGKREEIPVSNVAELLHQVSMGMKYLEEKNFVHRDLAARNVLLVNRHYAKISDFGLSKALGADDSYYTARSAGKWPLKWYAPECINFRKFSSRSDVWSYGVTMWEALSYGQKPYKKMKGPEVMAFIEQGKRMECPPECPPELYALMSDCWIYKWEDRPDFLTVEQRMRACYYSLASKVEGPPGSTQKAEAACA
The method, boiled down:
as §1

Another assay has as its target T4, EphA8 (P29322) (Homo sapiens, UniProt P29322).
T4 construct: purchased PamGene (PamChip PTK array, Upstream Kinase Analysis)
T4 sequence (P29322 28-1005): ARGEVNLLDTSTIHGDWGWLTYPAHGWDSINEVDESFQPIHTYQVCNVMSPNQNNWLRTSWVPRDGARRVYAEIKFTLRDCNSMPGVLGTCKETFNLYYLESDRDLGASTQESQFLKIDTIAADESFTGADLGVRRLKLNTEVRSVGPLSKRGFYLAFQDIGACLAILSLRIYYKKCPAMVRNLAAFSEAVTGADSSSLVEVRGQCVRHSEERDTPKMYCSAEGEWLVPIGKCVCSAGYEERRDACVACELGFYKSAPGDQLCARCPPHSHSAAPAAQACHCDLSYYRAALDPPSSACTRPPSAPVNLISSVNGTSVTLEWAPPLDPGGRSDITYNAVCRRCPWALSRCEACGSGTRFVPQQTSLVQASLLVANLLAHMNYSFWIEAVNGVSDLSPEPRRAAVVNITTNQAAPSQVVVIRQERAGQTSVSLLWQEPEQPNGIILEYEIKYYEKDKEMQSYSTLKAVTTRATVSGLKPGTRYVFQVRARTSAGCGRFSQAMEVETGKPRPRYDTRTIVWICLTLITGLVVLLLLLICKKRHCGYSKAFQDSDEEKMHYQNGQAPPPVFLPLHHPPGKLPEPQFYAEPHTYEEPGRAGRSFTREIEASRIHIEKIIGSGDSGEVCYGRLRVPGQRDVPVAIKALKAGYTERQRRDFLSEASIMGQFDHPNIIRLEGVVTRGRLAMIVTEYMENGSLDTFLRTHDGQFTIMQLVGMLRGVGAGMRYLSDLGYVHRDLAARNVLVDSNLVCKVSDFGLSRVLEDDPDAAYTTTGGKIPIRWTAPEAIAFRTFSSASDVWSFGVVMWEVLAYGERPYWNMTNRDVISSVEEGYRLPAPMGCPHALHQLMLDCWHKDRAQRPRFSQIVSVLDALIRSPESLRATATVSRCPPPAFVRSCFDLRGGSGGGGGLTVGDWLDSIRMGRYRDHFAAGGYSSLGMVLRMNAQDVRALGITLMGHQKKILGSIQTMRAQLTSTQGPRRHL
In a few lines:
as §1

T2 sequence (P11362 22-822): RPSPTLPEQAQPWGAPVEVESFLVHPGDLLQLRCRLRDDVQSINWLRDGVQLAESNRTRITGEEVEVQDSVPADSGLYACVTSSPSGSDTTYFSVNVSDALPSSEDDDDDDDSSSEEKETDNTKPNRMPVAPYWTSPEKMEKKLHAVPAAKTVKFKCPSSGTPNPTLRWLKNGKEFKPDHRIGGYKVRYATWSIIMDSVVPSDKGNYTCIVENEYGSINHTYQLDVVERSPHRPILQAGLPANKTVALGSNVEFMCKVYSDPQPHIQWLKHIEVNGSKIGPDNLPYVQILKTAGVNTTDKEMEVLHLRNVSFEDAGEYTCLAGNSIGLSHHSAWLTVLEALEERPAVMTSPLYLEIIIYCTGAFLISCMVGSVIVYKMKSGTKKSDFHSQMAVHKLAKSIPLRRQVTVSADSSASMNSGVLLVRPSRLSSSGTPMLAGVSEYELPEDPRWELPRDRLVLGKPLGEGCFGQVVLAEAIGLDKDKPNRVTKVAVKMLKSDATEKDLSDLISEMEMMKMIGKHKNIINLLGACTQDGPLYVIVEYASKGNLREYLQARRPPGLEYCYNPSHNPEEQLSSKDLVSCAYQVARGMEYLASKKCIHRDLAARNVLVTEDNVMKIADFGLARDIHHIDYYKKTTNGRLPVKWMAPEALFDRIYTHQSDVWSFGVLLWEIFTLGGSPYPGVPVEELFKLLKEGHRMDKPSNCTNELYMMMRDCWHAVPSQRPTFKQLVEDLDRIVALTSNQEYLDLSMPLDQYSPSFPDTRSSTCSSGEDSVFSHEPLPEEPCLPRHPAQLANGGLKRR
T1 sequence (P09619 33-1106): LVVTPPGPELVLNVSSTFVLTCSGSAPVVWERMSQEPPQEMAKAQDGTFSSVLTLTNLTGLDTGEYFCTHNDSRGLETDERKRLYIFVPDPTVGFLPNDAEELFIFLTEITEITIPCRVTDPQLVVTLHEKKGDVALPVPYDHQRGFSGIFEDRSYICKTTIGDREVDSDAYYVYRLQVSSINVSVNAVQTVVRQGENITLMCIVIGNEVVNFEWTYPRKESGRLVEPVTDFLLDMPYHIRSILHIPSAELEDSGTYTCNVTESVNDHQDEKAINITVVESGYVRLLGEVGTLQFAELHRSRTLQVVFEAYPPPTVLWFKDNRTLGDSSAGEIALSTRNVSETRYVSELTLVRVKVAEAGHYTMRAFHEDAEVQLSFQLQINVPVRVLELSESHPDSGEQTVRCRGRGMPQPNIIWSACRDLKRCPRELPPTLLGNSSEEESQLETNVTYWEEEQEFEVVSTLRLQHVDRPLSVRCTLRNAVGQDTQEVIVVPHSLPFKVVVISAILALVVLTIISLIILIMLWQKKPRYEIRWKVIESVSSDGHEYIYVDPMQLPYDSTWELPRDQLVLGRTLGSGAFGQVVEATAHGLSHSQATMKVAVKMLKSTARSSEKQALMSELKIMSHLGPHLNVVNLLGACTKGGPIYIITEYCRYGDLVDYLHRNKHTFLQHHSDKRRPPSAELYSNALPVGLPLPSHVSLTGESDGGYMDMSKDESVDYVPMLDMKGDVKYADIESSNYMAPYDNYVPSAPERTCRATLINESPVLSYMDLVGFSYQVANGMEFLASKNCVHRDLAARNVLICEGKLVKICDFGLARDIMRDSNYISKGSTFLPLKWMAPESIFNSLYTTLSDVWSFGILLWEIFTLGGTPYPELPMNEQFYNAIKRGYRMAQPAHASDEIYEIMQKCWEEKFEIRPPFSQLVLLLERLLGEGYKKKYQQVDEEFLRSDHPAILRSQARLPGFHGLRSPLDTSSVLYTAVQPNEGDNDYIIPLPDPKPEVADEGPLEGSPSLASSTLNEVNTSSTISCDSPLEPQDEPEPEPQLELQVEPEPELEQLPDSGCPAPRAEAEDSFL

With `COc1ccc(/C=C2\N=C(C)N(c3ccc(CC(=O)NCc4ccccc4)cc3)C2=O)cc1` [Compound 4c, (Z)-N-Benzyl-2-(4-(4-(4-methoxybenzylidene)-2-methyl-5-oxo-4,5-dihydro-1H-imidazol-1-yl)phenyl)acetamide], the “Mean Final score (Kinase score)” value on PDGFR[beta] (P09619) turned out to be 2.559; at FGFR1 (P11362), 1.92; on ZAP70 (P43403), 1.771; on EphA8 (P29322), 2.201. Besides, the “Mean Kinase Statistic” value at PDGFR[beta] (P09619) is given as -1.304; on FGFR1 (P11362) it was -0.994; at ZAP70 (P43403) it was -1.015; on EphA8 (P29322), -0.925. The “Mean Significance Score” value on PDGFR[beta] (P09619) was found to be 2.048; on FGFR1 (P11362) it was 1.619; on ZAP70 (P43403), 1.836; at EphA8 (P29322), 1.989. Further, the “Mean Specificity Score” value stood at 0.562 on PDGFR[beta] (P09619), 0.1511 at FGFR1 (P11362), 0.009048 at ZAP70 (P43403) and 0.1251 at EphA8 (P29322).
